Converted amounts (≈) assume the structure as drawn.
These compounds were tested on S. aureus (assay: Minimum inhibitory concentrations (MICs) for S. aureus of exemplary compounds (Table 2)). Settings: Staphylococcus aureus, minimum inhibitory concentrations for S. aureus; read-out: MICs.
Format: cell-based
Summary of the method: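 MICs (μg/mL) against S. aureus come from microtiter-tray dilution susceptibility testing per NCCLS M7-A5, comparing growth with and without compound.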
`CCSc1nnn(Cc2ccc(-c3ccc(N4C[C@H](CNC(C)=O)OC4=O)cc3F)cc2)n1` [Compound 1082, N-{3-[4′-(5-Ethylsulfanyl-tetrazol-2-ylmethyl)-2-fluoro-biphenyl-4-yl]-2-oxo-oxazolidin-5-(S)-ylmethyl}-acetamide] showed an MIC of 0.5 µg/mL (≈ 1.06 µM).
Compound `CC(=O)NC[C@H]1CN(c2ccc(-c3ccc(CNCCCc4cn[nH]c4C)cc3)c(F)c2)C(=O)O1` [Compound 4148, N-[3-(2-Fluoro-4′-{[3-(5-methyl-1H-pyrazol-4-yl)-propylamino]-methyl}-biphenyl-4-yl)-2-oxo-oxazolidin-5-(S)-ylmethyl]-acetamide] has an MIC of 2 µg/mL (≈ 4.17 µM).
For `CC(=O)NC[C@H]1CN(c2ccc(-c3ccc(CNCc4c(N)oc5ccccc5c4=O)cc3)c(F)c2)C(=O)O1` [Compound 4129, N-[3-(4′-{[(2-Amino-4-oxo-4H-chromen-3-ylmethyl)-amino]-methyl}-2-fluoro-biphenyl-4-yl)-2-oxo-oxazolidin-5-(S)-ylmethyl]-acetamide], the MIC was 4 µg/mL (≈ 7.54 µM).
Work on `CC(=O)NC[C@H]1CN(c2ccc(-c3ccc(CN4CCC(CCO)CC4)cc3)c(F)c2)C(=O)O1` [Compound 1030, N-(3-{2-Fluoro-4′-[4-(2-hydroxy-ethyl)-piperidin-1-ylmethyl]-biphenyl-4-yl}-2-oxo-oxazolidin-5-(S)-ylmethyl)-acetamide] yielded an MIC of 2 µg/mL (≈ 4.26 µM).
`CC(=O)NC[C@H]1CN(c2ccc(-c3ccc(CSCC4CO4)cc3)c(F)c2)C(=O)O1` (stereo partly drawn) [Compound 4226, N-[3-(2-Fluoro-4′-oxiranylmethylsulfanylmethyl-biphenyl-4-yl)-2-oxo-oxazolidin-5-(S)-ylmethyl]-acetamide] was tested, and the MIC was 1 µg/mL (≈ 2.32 µM).
For `CC(=O)NC[C@H]1CN(c2ccc(-c3ccc(Cn4cnc5c(NCCF)ncnc54)cc3)c(F)c2)C(=O)O1` [Compound 1102, N-(3-{2-Fluoro-4′-[6-(2-fluoro-ethylamino)-purin-9-ylmethyl]-biphenyl-4-yl}-2-oxo-oxazolidin-5-(S)-ylmethyl)-acetamide], the MIC was 1 µg/mL (≈ 1.92 µM).
In the case of `CC(=O)NC[C@H]1CN(c2ccc(-c3ccc(CNCC4CCN(C(=O)OC(C)(C)C)C4)cc3)c(F)c2)C(=O)O1` (stereo partly drawn) [Compound 4317, 3-[({4′-[5-(S)-(Acetylamino-methyl)-2-oxo-oxazolidin-3-yl]-2′-fluoro-biphenyl-4-ylmethyl}-amino)-methyl]-pyrrolidine-1-carboxylic acid tert-butyl ester], the MIC is reported as 16 µg/mL (≈ 29.6 µM).
`CC(=O)NC[C@H]1CN(c2ccc(-c3ccc(CN(C)Cc4ccccn4)cc3)c(F)c2)C(=O)O1` [Compound 4045, N-(3-{2-Fluoro-4′-[(methyl-pyridin-2-ylmethyl-amino)-methyl]-biphenyl-4-yl}-2-oxo-oxazolidin-5-(S)-ylmethyl)-acetamide] gave an MIC of 2 µg/mL (≈ 4.32 µM).
`CC(=O)NC[C@H]1CN(c2ccc(-c3ccc(CNCc4cccc5ccccc45)cc3)c(F)c2)C(=O)O1` [Compound 4022, N-[3-(2-Fluoro-4′-{[(naphthalen-1-ylmethyl)-amino]-methyl}-biphenyl-4-yl)-2-oxo-oxazolidin-5-(S)-ylmethyl]-acetamide] gave an MIC of 4 µg/mL (≈ 8.04 µM).
`CC(=O)NC[C@H]1CN(c2ccc(-c3ccc(CN4CCC4)cc3)c(F)c2)C(=O)O1` [Compound 1090, N-[3-(4′-Azetidin-1-ylmethyl-2-fluoro-biphenyl-4-yl)-2-oxo-oxazolidin-5-(S)-ylmethyl]-acetamide] was tested, and the MIC was 2 µg/mL (≈ 5.03 µM).
Compound `CC(=O)NC[C@H]1CN(c2ccc(-c3ccc(CNCc4c(C)nn(C)c4Cl)cc3)c(F)c2)C(=O)O1` [Compound 4126, N-[3-(4′-{[(5-Chloro-1,3-dimethyl-1H-pyrazol-4-ylmethyl)-amino]-methyl}-2-fluoro-biphenyl-4-yl)-2-oxo-oxazolidin-5-(S)-ylmethyl]-acetamide] has an MIC of 0.5 µg/mL (≈ 1 µM).
With `CNc1nc(CNCc2ccc(-c3ccc(N4C[C@H](CNC(C)=O)OC4=O)cc3F)cc2)ns1` [Compound 4180, N-[3-(2-Fluoro-4′-{[(5-methylamino-[1,2,4]thiadiazol-3-ylmethyl)-amino]-methyl}-biphenyl-4-yl)-2-oxo-oxazolidin-5-(S)-ylmethyl]-acetamide] the MIC was 1 µg/mL (≈ 2.06 µM).
In the case of `CC(=O)NC[C@H]1CN(c2ccc(-c3ccc(CN(C)Cc4ccoc4)cc3)c(F)c2)C(=O)O1` [Compound 4061, N-(3-{2-Fluoro-4′-[(furan-3-ylmethyl-methyl-amino)-methyl]-biphenyl-4-yl}-2-oxo-oxazolidin-5-(S)-ylmethyl)-acetamide], the MIC is reported as 4 µg/mL (≈ 8.86 µM).
`CC(=O)NC[C@H]1CN(c2ccc(-c3ccc(CNC(=O)c4cccc(S(C)(=O)=O)c4)cc3)c(F)c2)C(=O)O1` [Compound 4012, N-{4′-[5-(S)-(Acetylamino-methyl)-2-oxo-oxazolidin-3-yl]-2′-fluoro-biphenyl-4-ylmethyl}-3-methanesulfonyl-benzamide] showed an MIC of 4 µg/mL (≈ 7.41 µM).
Compound `COc1ncccc1CNCc1ccc(-c2ccc(N3C[C@H](CNC(C)=O)OC3=O)cc2F)cc1` [Compound 4151, N-[3-(2-Fluoro-4′-{[(2-methoxy-pyridin-3-ylmethyl)-amino]-methyl}-biphenyl-4-yl)-2-oxo-oxazolidin-5-(S)-ylmethyl]-acetamide] has an MIC of 2 µg/mL (≈ 4.18 µM).
`CC(=O)NC[C@H]1CN(c2ccc(-c3ccc(CN(Cc4[nH]nnc4C)Cc4[nH]nnc4C)cc3)c(F)c2)C(=O)O1` [Compound 4270, N-[3-(4′-{[Bis-(5-methyl-3H-[1,2,3]triazol-4-ylmethyl)-amino]-methyl}-2-fluoro-biphenyl-4-yl)-2-oxo-oxazolidin-5-(S)-ylmethyl]-acetamide] gave an MIC of 4 µg/mL (≈ 7.3 µM).
Work on `CC(=O)NC[C@H]1CN(c2ccc(-c3ccc(CNC(=O)COc4ccc(Cl)cc4Cl)cc3)c(F)c2)C(=O)O1` [Compound 5014, N-{4′-[5-(S)-(Acetylamino-methyl)-2-oxo-oxazolidin-3-yl]-2′-fluoro-biphenyl-4-ylmethyl}-2-(2,4-dichloro-phenoxy)-acetamide] yielded an MIC of 16 µg/mL (≈ 28.6 µM).
`CC(=O)NC[C@H]1CN(c2ccc(-c3ccc(CNCc4cccs4)cc3)c(F)c2)C(=O)O1` [Compound 4137, N-[3-(2-Fluoro-4′-{[(thiophen-2-ylmethyl)-amino]-methyl}-biphenyl-4-yl)-2-oxo-oxazolidin-5-(S)-ylmethyl]-acetamide] gave an MIC of 0.5 µg/mL (≈ 1.1 µM).
Work on `CSc1nc(CNCc2ccc(-c3ccc(N4C[C@H](CNC(C)=O)OC4=O)cc3F)cc2)ccc1C#N` [Compound 4128, N-[3-(4′-{[(5-Cyano-6-methylsulfanyl-pyridin-2-ylmethyl)-amino]-methyl}-2-fluoro-biphenyl-4-yl)-2-oxo-oxazolidin-5-(S)-ylmethyl]-acetamide] yielded an MIC of 0.5 µg/mL (≈ 0.962 µM).
Work on `CC(=O)NC[C@H]1CN(c2ccc(-c3ccc(CNCc4cc(C)c(C)o4)cc3)c(F)c2)C(=O)O1` [Compound 4085, N-[3-(4′-{[(4,5-Dimethyl-furan-2-ylmethyl)-amino]-methyl}-2-fluoro-biphenyl-4-yl)-2-oxo-oxazolidin-5-(S)-ylmethyl]-acetamide] yielded an MIC of 4 µg/mL (≈ 8.59 µM).
`CC(=O)NC[C@H]1CN(c2ccc(-c3ccc(C(=O)NCCc4cnc[nH]4)nc3)c(F)c2)C(=O)O1` [Compound 4223, 5-{4-[5-(S)-(Acetylamino-methyl)-2-oxo-oxazolidin-3-yl]-2-fluoro-phenyl}-pyridine-2-carboxylic acid [2-(3H-imidazol-4-yl)-ethyl]-amide] gave an MIC of 2 µg/mL (≈ 4.29 µM).
`CC(=O)NC[C@H]1CN(c2ccc(-c3ccc(CNCc4[nH]cnc4C)cc3)c(F)c2)C(=O)O1` [Compound 4082, N-[3-(2-Fluoro-4′-{[(5-methyl-3H-imidazol-4-ylmethyl)-amino]-methyl}-biphenyl-4-yl)-2-oxo-oxazolidin-5-(S)-ylmethyl]-acetamide] showed an MIC of 32 µg/mL (≈ 70.9 µM).
Compound `CC(=O)NC[C@H]1CN(c2ccc(-c3ccc(CNCc4cccc(C)n4)cc3)c(F)c2)C(=O)O1` [Compound 4072, N-[3-(2-Fluoro-4′-{[(6-methyl-pyridin-2-ylmethyl)-amino]-methyl}-biphenyl-4-yl)-2-oxo-oxazolidin-5-(S)-ylmethyl]-acetamide] has an MIC of 2 µg/mL (≈ 4.32 µM).
Work on `CC(=O)NC[C@H]1CN(c2ccc(-c3ccc(CNC(=O)C4CCN4)cc3)c(F)c2)C(=O)O1` (stereo partly drawn) [Compound 4296, Azetidine-2-carboxylic acid {4′-[5-(S)-(acetylamino-methyl)-2-oxo-oxazolidin-3-yl]-2′-fluoro-biphenyl-4-ylmethyl}-amide] yielded an MIC of 2 µg/mL (≈ 4.54 µM).
Work on `CC(=O)NC[C@H]1CN(c2ccc(-c3ccc(S(=O)(=O)NCc4ccccn4)cc3)c(F)c2)C(=O)O1` [Compound 3006, N-(3-{2-Fluoro-4′-[(pyridin-2-ylmethyl)-sulfamoyl]-biphenyl-4-yl}-2-oxo-oxazolidin-5-(S)-ylmethyl)-acetamide] yielded an MIC of 16 µg/mL (≈ 32.1 µM).
`CSCCN(Cc1ccccc1)C[C@@H](O)c1ccc(-c2ccc(N3C[C@H](CNC(C)=O)OC3=O)cc2F)cc1` [Compound 4248, N-[3-(4′-{2-[Benzyl-(2-methylsulfanyl-ethyl)-amino]-1-(S)-hydroxy-ethyl}-2-fluoro-biphenyl-4-yl)-2-oxo-oxazolidin-5-(S)-ylmethyl]-acetamide] gave an MIC of 4 µg/mL (≈ 7.25 µM).
`CC(=O)NC[C@H]1CN(c2ccc(-c3ccc(CNCc4ccc(C)o4)cc3)c(F)c2)C(=O)O1` [Compound 4081, N-[3-(2-Fluoro-4′-{[(5-methyl-furan-2-ylmethyl)-amino]-methyl}-biphenyl-4-yl)-2-oxo-oxazolidin-5-(S)-ylmethyl]-acetamide] gave an MIC of 2 µg/mL (≈ 4.43 µM).
In the case of `CC(=O)NC[C@H]1CN(c2ccc(-c3ccc(CNCc4ccon4)cc3)c(F)c2)C(=O)O1` [Compound 4183, N-[3-(2-Fluoro-4′-{[(isoxazol-3-ylmethyl)-amino]-methyl}-biphenyl-4-yl)-2-oxo-oxazolidin-5-(S)-ylmethyl]-acetamide], the MIC is reported as 1 µg/mL (≈ 2.28 µM).
